Reference: patent US20260027094A1, “USE OF PYRIDONE DERIVATIVE” (GUANGZHOU JOYO PHARMATECH CO., LTD, priority 2022, published 2026)

How the values were obtained:
[1] = test system: TNBS-induced SD rat models of chronic colitis with intestinal fibrosis; assay: Pharmacodynamic experiment of TNBS-induced rat models of chronic colitis with intestinal fibrosis; format: in vivo, SD rats; settings: for AUC(0-10 d) (D 0-D 10) of DAI scores: after first TNBS induction; for AUC(0-10 d) (D 0-D 10) of DAI scores / AUC(14-24 d) (D 14-D 24) of DAI scores: mean ± SD; for AUC(14-24 d) (D 14-D 24) of DAI scores: after second TNBS induction; for CVF (%) of colon middle segment: Masson staining, model control 6.39 ± 3.16, normal 0.74 ± 0.32; for Inflammatory response (points), histopathological score of colon tissue / Tissue ulcer (points), histopathological score of colon tissue: colon middle segment, model control 2.00 ± 0.00; for HYP (μg/g) of colon middle segment: model control 2109.99 ± 385.85, normal 1141.78 ± 106.42; for Change rate of AUC(0-10 d) (%) / Change rate of AUC(14-24 d) (%): relative to model control group
Description: • 1) Animals: SD rats, specific pathogen-free (SPF) grade, male, aged 7 to 8 weeks at the time of grouping, with 10 rats per group. The animals were supplied by Beijing HFK Bioscience Co., Ltd. • 2) Reagents, positive drugs, and test drugs • A. Reagents
• B. Positive Drugs: Sulfasalazine Colon-Soluble Capsules, Supplied by Guangdong Qiangji Pharmaceutical Co., Ltd. • C. Test Drug: Compound I, Supplied by Guangzhou JOYO Pharmatech Co., Ltd. • 3) Modeling method
TNBS two-enema method: After the adaptation period inspection and observation were qualified, experimental animals were screened by body weight and randomly divided into six experimental groups based on body weight. The groups included a normal control group, a model control group, a positive drug treatment group, a test compound low dose treatment group, a test compound medium dose treatment group, and a test compound high dose treatment group, with 10 rats in each group. On the day of grouping, animals in the normal control group were administered 50% ethanol solution via enema, while animals in the other groups were administered TNBS ethanol solution via enema. The dose of TNBS was 30 mg per animal, with the induction of the model performed twice at a frequency of once every two weeks. The experimental period lasted for 4 weeks, during which all animals were given normal access to water and food. • 4) Grouping and administration
The Disease Activity Index (DAI) scoring was performed on each group of experimental animals based on indicators such as animal body weight, stool morphology and characteristics, and occult blood or hematochezia. Scoring was performed after model induction, once a day for 10 consecutive days, for a total of 2 rounds.
Note: The DAI score was performed based on the percentage of body weight loss, stool morphology, and progression of blood in the stool. Statistical analysis was conducted comprehensively using these three scoring indicators. • 6) Endpoint sample collection, histopathological analysis, and hydroxyproline content analysis • A. After euthanizing the animals with pentobarbital sodium anesthesia, the colon, i.e., the segment from the end of cecum to the anus, was excised. The intestinal segment was flushed with normal saline, and the entire colon was evenly divided into upper, middle, and lower segments. The middle segment of the colon was further divided, with part of the tissue quickly frozen in liquid nitrogen and stored in a −80° C. refrigerator for measuring the total hydroxyproline levels in the middle segment samples of the colon of animals in each group. The remaining middle segment tissue was fixed in 10% formaldehyde, embedded in paraffin, and sectioned into 3 μm-thick slices. These slices were then deparaffinized in xylene, rehydrated through a graded ethanol series, subjected to H&E staining and Masson staining, dehydrated, cleared, sealed, and observed under a microscope to capture histopathological changes. Routine tissue freezing was performed. • B. Histopathological analysis
• a: Based on the Masson staining results, the area of collagen staining-positive regions and the total area of samples from the middle segment samples of the colon (submucosa and muscularis) of animals in each experimental group were statistically analyzed using Image J to calculate the collagen volume fraction (CVF %) of each sample. • C. Detection of hydroxyproline levels in the colon
The middle segment samples of the colon were processed according to the instructions, using the hydroxyproline detection kit. The total hydroxyproline levels in the middle segment samples of the colon of animals in each group were measured.

[2] = test system: carbon tetrachloride-induced SD rat models of liver fibrosis; assay: In vivo pharmacodynamic study on carbon tetrachloride-induced rat models of liver fibrosis; design: species or system SD rats; settings: for Liver fibrosis score (points): Sirius Red staining, model control 4.90 ± 0.88; for Liver CVF (%): model control 8.75 ± 2.39, normal 1.24 ± 0.23; for Liver HYP content: model control 702.84 ± 173.44, normal 307.30 ± 78.13
Description: • 1) Animals: SD rats, specific pathogen-free (SPF) grade, male, aged 7 to 8 weeks at the time of grouping, with 10 mice per group. The animals were supplied by Beijing HFK Bioscience Co., Ltd. • 2) Reagents, positive drugs, and test drugs • A. Reagents
• B. Positive Drug: Pirfenidone, Supplied by Biochempartner. • C. Test Drug: compound I, supplied by Guangzhou JOYO Pharmatech Co., Ltd. • 3) Modeling method
Intraperitoneal injection method of carbon tetrachloride: After the adaptation period inspection and observation were qualified, experimental animals were screened by body weight and randomly divided into a normal control group and a model induction group. Starting on the first day of grouping, animals in the model induction group were intraperitoneally injected with a 20% carbon tetrachloride solution dissolved in corn oil, at a modeling frequency of twice a week for six consecutive weeks. After two weeks of carbon tetrachloride induction, animals in the model induction group were randomly subdivided a second time into 5 experimental groups based on their alanine transaminase (ALT) levels (with body weight used as a calibration factor), including the model control group, positive drug treatment group, test compound low dose treatment group, test compound medium dose treatment group, and test compound high dose treatment group. Animals in the normal control group were administered the corresponding vehicle. The experimental period lasted for 6 weeks, during which all animals were given normal access to water and food. • 4) Grouping and administration info
• a: The test compound vehicle was an aqueous solution of 0.5% (w/v) methylcellulose and 0.2% (v/v) Tween 80. • b: An aqueous solution of 0.5% (w/v) methylcellulose and 0.2% (v/v) Tween 80 was used as the vehicle and prepared to the required concentration. • 5) Endpoint sample collection, histopathological analysis, and hydroxyproline content analysis. • A. After euthanizing the animals with pentobarbital sodium anesthesia, the liver was excised and rinsed with normal saline. The liver was divided into three segments: the large lobe, the left lobe, and the right-middle lobe. The large lobe tissue was quickly frozen in liquid nitrogen and stored in a −80° C. refrigerator for measuring the total hydroxyproline levels of animal liver samples in each group. The tissues of left lobe and right-middle lobe of liver were fixed in 10% formaldehyde, embedded in paraffin, and sectioned into 3 μm-thick slices. These slices were then deparaffinized in xylene, rehydrated through a graded ethanol series, subjected to Sirius Red staining, dehydrated, cleared, sealed, and observed under a microscope to capture histopathological changes. Routine tissue freezing was performed. • B. Analysis of fibrosis levels in liver tissue sections;
Based on Sirius Red staining results of liver sections, 1) fibrosis staging was scored according to the scoring criteria listed in Table 3; 2) using Image J, the liver fibrotic area and the total sample area of animals in each experimental group were counted to calculate the collagen volume fraction (CVF %) for each sample. • C. Detection of hydroxyproline levels in liver
The liver large lobe samples were processed according to the instructions using the hydroxyproline detection kit. The total hydroxyproline levels in the liver samples of animals in each group were detected.

[3] = Compound I high dose 15 mg/kg oral gavage twice a day
[4] = Compound I high dose 15 mg/kg twice a day for 4 weeks
[5] = Compound I high dose 15 mg/kg twice a day
[6] = Compound I low dose 3 mg/kg oral gavage twice a day
[7] = Compound I low dose 3 mg/kg twice a day for 4 weeks
[8] = Compound I low dose 3 mg/kg twice a day
[9] = Compound I medium dose 6 mg/kg oral gavage twice a day
[10] = Compound I medium dose 6 mg/kg twice a day for 4 weeks
[11] = Compound I medium dose 6 mg/kg twice a day
[12] = Compound I high dose 30 mg/kg twice a day for 4 weeks
[13] = Compound I medium dose 10 mg/kg twice a day for 4 weeks
[14] = pirfenidone 150 mg/kg twice a day for 4 weeks
[15] = sulfasalazine 50 mg/kg oral gavage twice a day
[16] = sulfasalazine 50 mg/kg twice a day
[17] = sulfasalazine 50 mg/kg twice a day for 4 weeks

For CC1(c2ccc(=O)n(-c3ccsc3)c2)COC1 [Compound I], the “Efficacy evaluation result (conclusion)” value ([1]; Compound I 3.0, 6.0 and 15.0 mg/kg twice a day, 4 weeks) was “significant therapeutic effect”, the “AUC(0-10 d) (D 0-D 10) of DAI scores” value [1, 3] was 33.50 ± 3.97 and the “AUC(14-24 d) (D 14-D 24) of DAI scores” value [1, 3] was 15.40 ± 3.50. For the same compound, the “CVF (%) of colon middle segment” value [1, 4] was 2.37 ± 1.33 %, the “Inflammatory response (points), histopathological score of colon tissue” value [1, 4] was 0.80 ± 0.79 points and the “Tissue ulcer (points), histopathological score of colon tissue” value [1, 4] was 0.70 ± 0.67 points. The “HYP (μg/g) of colon middle segment” value [1, 4] was 1270.56 ± 287.01 µg/g, the “Change rate of AUC(0-10 d) (%)” value [1, 5] was −26.78% and the “Change rate of AUC(14-24 d) (%)” value [1, 5] was −35.97%. For the same compound, the “AUC(0-10 d) (D 0-D 10) of DAI scores” value [1, 6] was 37.15 ± 4.93, the “AUC(14-24 d) (D 14-D 24) of DAI scores” value [1, 6] was 19.30 ± 2.79 and the “CVF (%) of colon middle segment” value [1, 7] was 2.97 ± 1.78 %. The “Inflammatory response (points), histopathological score of colon tissue” value [1, 7] was 1.00 ± 0.67 points, the “Tissue ulcer (points), histopathological score of colon tissue” value [1, 7] was 0.80 ± 0.63 points and the “HYP (μg/g) of colon middle segment” value [1, 7] was 1333.43 ± 155.33 µg/g. For the same compound, the “Change rate of AUC(0-10 d) (%)” value [1, 8] was −18.80%, the “Change rate of AUC(14-24 d) (%)” value [1, 8] was −19.75% and the “AUC(0-10 d) (D 0-D 10) of DAI scores” value [1, 9] was 36.05 ± 4.87. The “AUC(14-24 d) (D 14-D 24) of DAI scores” value [1, 9] was 17.25 ± 3.16, the “CVF (%) of colon middle segment” value [1, 10] was 2.36 ± 1.47 % and the “Inflammatory response (points), histopathological score of colon tissue” value [1, 10] was 0.70 ± 0.67 points. The “Tissue ulcer (points), histopathological score of colon tissue” value [1, 10] was 0.70 ± 0.67 points, the “HYP (μg/g) of colon middle segment” value [1, 10] was 1228.40 ± 235.44^####+ μg/g and the “Change rate of AUC(0-10 d) (%)” value [1, 11] was −21.20%. The “Change rate of AUC(14-24 d) (%)” value [1, 11] was −28.27%, the “Colon tissue healing and degree of fibrosis (histopathology)” value ([1]; all Compound I treatment groups (3, 6, 15 mg/kg twice a day)) was “tissue healing and a reduction in the degree of fibrosis were observed” and the “Effective dose (colon fibrosis, HYP level improvement)” value ([1]; oral gavage twice a day, certain dose-dependent relationship) was 3.0 mg/kg. For the same compound, the “Effective low dose (DAI AUC(0-10 d) improvement)” value ([1]; oral gavage twice a day, chronic colitis disease process) was 3.0 mg/kg, the “Efficacy evaluation result (conclusion)” value ([2]; Compound I 3.0, 10.0 and 30.0 mg/kg twice a day, 4 weeks) was “significant therapeutic effect” and the “Liver fibrosis score (points)” value ([2]; Compound I high dose 30 mg/kg oral gavage twice a day for 4 weeks) was 4.20 ± 0.92 points. For the same compound, the “Liver CVF (%)” value [2, 12] was 5.60 ± 1.92 %, the “Liver HYP content” value [2, 12] was 607.79 ± 112.74 µg/g and the “Liver fibrosis score (points)” value ([2]; Compound I low dose 3 mg/kg oral gavage twice a day for 4 weeks) was 4.40 ± 0.70 points. The “Liver CVF (%)” value [2, 7] was 5.02 ± 1.42 %, the “Liver HYP content” value [2, 7] was 716.17 ± 105.01 µg/g and the “Pseudolobular structure of the liver under light microscope” value ([2]; Compound I medium and high dose treatment groups (10, 30 mg/kg twice a day), some animals, Sirius Red) was “tended to disintegrate”. For the same compound, the “Liver fibrosis score (points)” value ([2]; Compound I medium dose 10 mg/kg oral gavage twice a day for 4 weeks) was 4.00 ± 0.94 points, the “Liver CVF (%)” value [2, 13] was 4.87 ± 1.68 % and the “Liver HYP content” value [2, 13] was 560.60 ± 114.04 µg/g. For the same compound, the “Hepatocyte fat degeneration and swelling degeneration in the central vein area of the liver” value ([2]; each Compound I treatment group vs model control, medium and high dose most obvious) was “reduced to some extent”.
Cc1ccc(=O)n(-c2ccccc2)c1 [Pirfenidone, reference compound] was tested, and the “Liver fibrosis score (points)” value ([2]; pirfenidone 150 mg/kg oral gavage twice a day for 4 weeks) was 5.40 ± 0.52 points, the “Liver CVF (%)” value [2, 14] was 6.58 ± 2.20 % and the “Liver HYP content” value [2, 14] was 611.19 ± 183.66 µg/g. For the same compound, the “Liver histopathological improvement under light microscope” value ([2]; pirfenidone 150 mg/kg twice a day, Sirius Red) was “no significant improvement”.
O=C(O)c1cc(/N=N/c2ccc(S(=O)(=O)Nc3ccccn3)cc2)ccc1O [Sulfasalazine, reference compound] was tested, and the “AUC(0-10 d) (D 0-D 10) of DAI scores” value [1, 15] was 29.80 ± 2.79, the “AUC(14-24 d) (D 14-D 24) of DAI scores” value [1, 15] was 11.70 ± 1.69 and the “Proliferation of connective tissue and fibrosis process in submucosa and muscularis of the colon” value [1, 16] was “significant improvements and healing”. For the same compound, the “CVF (%) of colon middle segment” value [1, 17] was 2.67 ± 1.06 %, the “Inflammatory response (points), histopathological score of colon tissue” value [1, 17] was 0.60 ± 0.52 points and the “Tissue ulcer (points), histopathological score of colon tissue” value [1, 17] was 0.50 ± 0.53 points. For the same compound, the “HYP (μg/g) of colon middle segment” value [1, 17] was 1299.79 ± 161.27 µg/g, the “Change rate of AUC(0-10 d) (%)” value [1, 16] was −34.86% and the “Change rate of AUC(14-24 d) (%)” value [1, 16] was −51.35%.
